From patent publication US20130183239A1, “ISOTOPIC CARBON CHOLINE ANALOGS” (IMPERIAL COLLEGE, priority 2010, published 2013)

Conditions: mouse, in vivo
Protocol: Metabolite analysis of tissues including liver, kidney and tumor by HPLC was also accomplished. […] Choline and its metabolites lack any UV chromophore to permit presentation of chromatograms of the cold unlabelled compound simultaneously with the radioactivity chromatograms.
Liver, kidney, and tumor samples were obtained at 30 min. All samples were snap-frozen in liquid nitrogen. For analysis, samples were thawed and kept at 4° C. immediately before use. To ˜0.2 mL plasma was added ice-cold methanol (1.5 mL). The mixture was then centrifuged (3 min, 15,493×g, 4jC). The supernatant was evaporated to dryness using a rotary evaporator (Heidoloph Instruments) at a bath temperature of 40° C. The residue was suspended in mobile phase (1.1 mL), clarified (0.2 Am filter), and analyzed by HPLC. Liver, kidney, and tumor samples were homogenized in ice-cold methanol (1.5 mL) using an IKA Ultra-Turrax T-25 homogenizer and subsequently treated as per plasma samples (above). All samples were analyzed by radio-HPLC on an Agilent 1100 series HPLC system (Agilent Technologies) equipped with a γ-RAM Model 3 γ-detector (IN/US Systems) and Laura 3 software (Lablogic). The stationary phase comprised a Waters μBondapak C18 reverse-phase column (300×7.8 mm) (Waters, Milford, Mass., USA). Samples were analyzed using a mobile phase comprising solvent A (acetonitrile/water/ethanol/acetic acid/1.0 mol/L ammonium acetate/0.1 mol/L sodium phosphate; 800/127/68/2/3/10) and solvent B (acetonitrile/water/ethanol/acetic acid/1.0 mol/L ammonium acetate/0.1 mol/L sodiumphosphate; 400/400/68/44/88/10) with a gradient of 0% B for 6 min, then 0→100% B in 10 min, 100% B for 0.5 min, 100→0% B in 1.5 min then 0% B for 2 min, delivered at a flow rate of 3 mL/min.

With `[2H]C([2H])(O)C([2H])([2H])[N+](C)(C)C[18F]` [[^18F]D4-FCH, [^18F]fluoromethyl-[1,2-^2H4]-choline] the “kidney radioactivity as phosphocholine” value was 60.6±3.7%, the “kidney radioactivity in the form of betaine” value was 20.6±6.2% and the “unknown metabolite (possibly the aldehyde intermediate) in liver” value was 7.4±2.3%. The “unknown metabolite in kidney” value was 8.8±0.2% and the “form of radioactivity in tumors” value (iv) was “mainly in the form of phosphocholine”.
